Measurements taken from patent publication US20240158446A1, “CYCLIC COMPOUND HAVING SELECTIVE INHIBITORY ACTION ON KRAS OVER HRAS AND NRAS” (CHUGAI SEIYAKU KABUSHIKI KAISHA, priority 2021, published 2024).
Read-outs that look alike come from different tables or passages of the source. Values belong to the compound of their own block, whether it stands above or below them.

What was measured:
[1] = biological target: GDP-bound NRAS wild-type protein (Homo sapiens, UniProt P01111); experiment: Binding to NRAS by surface plasmon resonance (SPR), Single Cycle Kinetics; details: for NRAS/KRAS (ratio of KD value for NRAS to KD value for KRAS): SPR, GDP-bound NRAS wild-type protein vs GDP-bound KRAS wild-type protein; for NRAS/KRAS (ratio of KD value with respect to GDP-bound NRAS wild-type protein to KD value with respect to KRAS): SPR KD ratio NRAS/KRAS, class symbols
[2] = test system: human lung cancer strain NCI-H441;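 further: cell proliferation inhibition after four days measured by CellTiter-Glo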
[3] = biological target: GDP-bound KRAS wild-type protein (Homo sapiens, UniProt P01116); experiment: Binding to KRAS by surface plasmon resonance (SPR), Single Cycle Kinetics; details: GDP-bound KRAS wild-type protein, read-out: KRAS KD
[4] = biological target: GDP-bound HRAS wild-type protein (Homo sapiens, UniProt P01112); experiment: Binding to HRAS by surface plasmon resonance (SPR), Single Cycle Kinetics; details: for HRAS/KRAS (ratio of KD value for HRAS to KD value for KRAS): SPR, GDP-bound HRAS wild-type protein vs GDP-bound KRAS wild-type protein; for HRAS/KRAS (ratio of KD value with respect to GDP-bound HRAS wild-type protein to KD value with respect to KRAS): SPR KD ratio HRAS/KRAS, class symbols
[5] = SPR, Single Cycle Kinetics, 1:1 binding model
[6] = SPR Single Cycle Kinetics, 1:1 binding model

Chain of GDP-bound KRAS wild-type protein (P01116 whole entry): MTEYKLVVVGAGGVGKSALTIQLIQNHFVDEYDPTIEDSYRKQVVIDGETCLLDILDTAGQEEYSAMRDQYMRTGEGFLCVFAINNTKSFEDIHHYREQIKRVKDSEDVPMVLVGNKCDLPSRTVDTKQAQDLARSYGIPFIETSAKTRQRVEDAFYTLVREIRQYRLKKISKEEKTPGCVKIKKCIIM
Chain of GDP-bound NRAS wild-type protein (P01111 whole entry): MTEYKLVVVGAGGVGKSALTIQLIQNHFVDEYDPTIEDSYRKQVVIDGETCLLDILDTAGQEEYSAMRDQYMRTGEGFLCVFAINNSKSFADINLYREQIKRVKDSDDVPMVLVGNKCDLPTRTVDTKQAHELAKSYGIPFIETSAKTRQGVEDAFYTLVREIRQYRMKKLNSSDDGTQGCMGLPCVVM
Chain of GDP-bound HRAS wild-type protein (P01112 whole entry): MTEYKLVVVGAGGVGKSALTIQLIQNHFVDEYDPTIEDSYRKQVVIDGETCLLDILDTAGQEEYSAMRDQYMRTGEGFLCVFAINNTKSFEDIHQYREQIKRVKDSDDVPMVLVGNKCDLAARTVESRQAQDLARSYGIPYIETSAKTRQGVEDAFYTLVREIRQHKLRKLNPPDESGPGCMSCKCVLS

Structure (SMILES): CCCCCC[C@H]1C(=O)N[C@@H]([C@@H](C)CC)C(=O)N(C)CC(=O)N(C)[C@H]2C/C=C\CCN(C2=O)[C@@H](Cc2ccc(C(F)(F)F)cc2)C(=O)N(C)CC(=O)N[C@@H](CCc2ccc(C(F)(F)F)c(OC)c2)C(=O)N2C[C@H](OCC)C[C@H]2C(=O)NC2(CCC2)C(=O)N(C)[C@@H](C2CCCC2)C(=O)N(C)[C@H](C(=O)N(C)C)CC(=O)N1C [PP1246, (2S,8S,12R,14S,20S,23S,27S,30S,36S,38Z)-20-cyclopentyl-12-ethoxy-27-hexyl-8-[2-[3-methoxy-4-(trifluoromethyl)phenyl]ethyl]-N,N,4,19,22,26,32,35-octamethyl-30-[(1S)-1-methylpropyl]-3,6,9,15,18,21,25,28,31,34,42-undecaoxo-2-[[4-(trifluoromethyl)phenyl]methyl]spiro[1,4,7,10,16,19,22,26,29,32,35-undecazatricyclo[34.5.1.0^10,14]dotetracont-38-ene-17,1′-cyclobutane]-23-carboxamide]
NRAS/KRAS (ratio of KD value for NRAS to KD value for KRAS) ([1]; KD ratio class): A (a compound having 10 or more and less than 20 is denoted as A) | IC50 [2]: 9 nM | Kd [3, 5]: 0.081 nM | HRAS/KRAS (ratio of KD value for HRAS to KD value for KRAS) ([4]; KD ratio class): A (a compound having 10 or more and less than 20 is denoted as A)

Structure (SMILES): CC[C@H](C)[C@@H]1NC(=O)[C@H](COC)N(C)C(=O)C[C@@H](C(=O)N(C)C)N(C)C(=O)[C@H](C2CCCC2)N(C)C(=O)C2(CC(C)(C)C2)NC(=O)[C@@H]2C[C@@H](OC3CCCC3)CN2C(=O)[C@H](CCc2cc(F)c(C(F)(F)F)c(F)c2)NC(=O)CN(C)C(=O)[C@H](CC2CCC(F)(F)CC2)N2CC/C=C\C[C@@H](C2=O)N(C)C(=O)CN(C2CC2)C1=O [PP2634]
NRAS/KRAS (ratio of KD value with respect to GDP-bound NRAS wild-type protein to KD value with respect to KRAS) [1]: A (a compound having 10 or more and less than 20 is denoted as A) | IC50 [2]: 45.4 nM | Kd [3, 6]: 0.68 nM | HRAS/KRAS (ratio of KD value with respect to GDP-bound HRAS wild-type protein to KD value with respect to KRAS) [4]: A (a compound having 10 or more and less than 20 is denoted as A)

Structure (SMILES): CCC[C@H]1C(=O)N[C@@H](CC(C)C)C(=O)N2C[C@@H](OC)C[C@H]2C(=O)N(C)[C@H]2C/C=C\CCN(C2=O)[C@@H](Cc2ccc(C)cc2)C(=O)N(C)CC(=O)N[C@@H](CCc2ccc(C(F)(F)F)c(OC)c2)C(=O)N2C[C@H](OCC)C[C@H]2C(=O)NC2(CC(C)(C)C2)C(=O)N(C)[C@@H](C2CCCC2)C(=O)N(C)[C@H](C(=O)N(C)C)CC(=O)N1C [PP2554]
NRAS/KRAS (ratio of KD value with respect to GDP-bound NRAS wild-type protein to KD value with respect to KRAS) [1]: A (a compound having 10 or more and less than 20 is denoted as A) | IC50 [2]: 271 nM | Kd [3, 6]: 5.6 nM | HRAS/KRAS (ratio of KD value with respect to GDP-bound HRAS wild-type protein to KD value with respect to KRAS) [4]: B (a compound having 3 or more and less than 10 is denoted as B)

Structure (SMILES): CCO[C@@H]1C[C@H]2C(=O)NC3(CCC3)C(=O)N(C)[C@@H](C3CCCC3)C(=O)N(C)[C@H](C(=O)N(C)C)CC(=O)N(C)[C@@H](CC3CCC3)C(=O)N[C@@H]([C@@H](C)CC)C(=O)N(C)CC(=O)N(C)[C@H]3C/C=C\CCN(C3=O)[C@@H](Cc3ccc(C(F)(F)F)cc3)C(=O)N(C)CC(=O)N[C@@H](CCc3cc(F)c(C(F)(F)F)c(F)c3)C(=O)N2C1 [PP1118, (2S,8S,12R,14S,20S,23S,27S,30S,36S,38Z)-27-(cyclobutylmethyl)-20-cyclopentyl-8-[2-[3,5-difluoro-4-(trifluoromethyl)phenyl]ethyl]-12-ethoxy-N,N,4,19,22,26,32,35-octamethyl-30-[(1S)-1-methylpropyl]-3,6,9,15,18,21,25,28,31,34,42-undecaoxo-2-[[4-(trifluoromethyl)phenyl]methyl]spiro[1,4,7,10,16,19,22,26,29,32,35-undecazatricyclo[34.5.1.0^10,14]dotetracont-38-ene-17,1′-cyclobutane]-23-carboxamide]
NRAS/KRAS (ratio of KD value for NRAS to KD value for KRAS) [1]: A (a compound having 10 or more and less than 20 is denoted as A) | IC50 [2]: 6.5 nM | Kd ([3]; SPR, Single Cycle Kinetics): 0.056 nM | HRAS/KRAS (ratio of KD value for HRAS to KD value for KRAS) [4]: B (a compound having 3 or more and less than 10 is denoted as B)

Structure (SMILES): CC[C@H](C)[C@@H]1NC(=O)[C@@H]2CCC/C=C/c3ccc(cc3)C[C@@H](C(=O)N(C)CC(=O)N[C@@H](CCc3ccc(Cl)c(Cl)c3)C(=O)N3C[C@H](OC4CCC4)C[C@H]3C(=O)NC3(CC(C)(C)C3)C(=O)N(C)[C@@H](C3CCCC3)C(=O)N(C)[C@H](C(=O)N(C)CC)CC(=O)N2C)N2CC/C=C\C[C@@H](C2=O)N(C)C(=O)CN(C)C1=O [PP3058]
NRAS/KRAS (ratio of KD value for NRAS to KD value for KRAS) [1]: A (a compound having 10 or more and less than 20 is denoted as A) | IC50 [2]: 21.2 nM | Kd ([3]; SPR, Single Cycle Kinetics): 0.21 nM | HRAS/KRAS (ratio of KD value for HRAS to KD value for KRAS) [4]: A (a compound having 10 or more and less than 20 is denoted as A)

Further lines, with some results ahead:

IC50 [2]: 33.9 nM | Kd ([3]; SPR, Single Cycle Kinetics): 3.2 nM
Structure (SMILES): CCC[C@H]1C(=O)N[C@@H]([C@@H](C)CC)C(=O)N(C2CC2)CC(=O)N(C)[C@H]2C/C=C\CCN(C2=O)[C@@H](CC2CCCCC2)C(=O)N(C)CC(=O)N[C@@H](CCc2ccc(C(F)(F)F)c(OC)c2)C(=O)N2C[C@H](OCC)C[C@H]2C(=O)N(C)C2(CCC2)C(=O)N(C)[C@@H](C(CC)CC)C(=O)N(C)[C@H](C(=O)N(C)C)CC(=O)N1C [PP2337]
NRAS/KRAS (ratio of KD value for NRAS to KD value for KRAS) [1]: A (a compound having 10 or more and less than 20 is denoted as A) | HRAS/KRAS (ratio of KD value for HRAS to KD value for KRAS) [4]: A (a compound having 10 or more and less than 20 is denoted as A)

IC50 [2]: 93.4 nM | Kd [3, 5]: 0.34 nM
Structure (SMILES): CCO[C@@H]1C[C@H]2C(=O)NC3(CCC3)C(=O)N(C)[C@@H](C(CC)CC)C(=O)N(C)[C@H](C(=O)N(C)C)CC(=O)N(C)[C@@H](C)C(=O)N[C@@H]([C@@H](C)CC)C(=O)N(C)CC(=O)N(C)[C@H]3C/C=C\CCN(C3=O)[C@@H](Cc3ccc(C(F)(F)F)cc3)C(=O)N(C)CC(=O)N[C@@H](CCc3ccc(Cl)c(Cl)c3)C(=O)N2C1 [PP1214]
NRAS/KRAS (ratio of KD value for NRAS to KD value for KRAS) ([1]; KD ratio class): AA (a compound having 20 or more is denoted as AA) | HRAS/KRAS (ratio of KD value for HRAS to KD value for KRAS) ([4]; KD ratio class): A (a compound having 10 or more and less than 20 is denoted as A)

IC50 [2]: 18.7 nM | Kd [3, 5]: 0.074 nM
Structure (SMILES): CCO[C@@H]1C[C@H]2C(=O)NC3(CCC3)C(=O)N(C)[C@@H](C3CCCC3)C(=O)N(C)[C@H](C(=O)N(C)C)CC(=O)N(C)[C@@H](CC3CC3)C(=O)N[C@@H]([C@@H](C)CC)C(=O)N(C)CC(=O)N(C)[C@H]3C/C=C\CCN(C3=O)[C@@H](Cc3ccc(C)cc3)C(=O)N(C)CC(=O)N[C@@H](CCc3cc(F)c(C(F)(F)F)c(F)c3)C(=O)N2C1 [PP1407, (2S,8S,12R,14S,20S,23S,27S,30S,36S,38Z)-20-cyclopentyl-27-(cyclopropylmethyl)-8-[2-[3,5-difluoro-4-(trifluoromethyl)phenyl]ethyl]-12-ethoxy-N,N,4,19,22,26,32,35-octamethyl-30-[(1S)-1-methylpropyl]-3,6,9,15,18,21,25,28,31,34,42-undecaoxo-2-(p-tolylmethyl)spiro[1,4,7,10,16,19,22,26,29,32,35-undecazatricyclo[34.5.1.0^10,14]dotetracont-38-ene-17,1′-cyclobutane]-23-carboxamide]
NRAS/KRAS (ratio of KD value for NRAS to KD value for KRAS) ([1]; KD ratio class): A (a compound having 10 or more and less than 20 is denoted as A) | HRAS/KRAS (ratio of KD value for HRAS to KD value for KRAS) ([4]; KD ratio class): A (a compound having 10 or more and less than 20 is denoted as A)

IC50 [2]: 26 nM | Kd [3, 6]: 0.52 nM
Structure (SMILES): CCC[C@H]1C(=O)N[C@@H]([C@@H](C)CC)C(=O)N(C)CC(=O)N(C)[C@H]2C/C=C\CCN(C2=O)[C@@H](Cc2ccc(C(F)(F)F)cc2)C(=O)N(C)CC(=O)N[C@@H](CCc2ccc(Cl)c(Cl)c2)C(=O)N2C[C@H](OCC)C[C@H]2C(=O)NC2(CC(C)(C)C2)C(=O)N(C)[C@@H](CC2CCC2)C(=O)N(C)[C@H](C(=O)N(C)C)CC(=O)N1C [PP2766]
NRAS/KRAS (ratio of KD value with respect to GDP-bound NRAS wild-type protein to KD value with respect to KRAS) [1]: A (a compound having 10 or more and less than 20 is denoted as A) | HRAS/KRAS (ratio of KD value with respect to GDP-bound HRAS wild-type protein to KD value with respect to KRAS) [4]: A (a compound having 10 or more and less than 20 is denoted as A)

IC50 [2]: 55.4 nM | Kd [3, 5]: 0.18 nM
Structure (SMILES): CCO[C@@H]1C[C@H]2C(=O)NC3(CCC3)C(=O)N(C)[C@@H](C3CCCC3)C(=O)N(C)[C@H](C(=O)N(C)C)CC(=O)N(C)[C@@H](CC)C(=O)N[C@@H]([C@@H](C)CC)C(=O)N(C)CC(=O)N(C)[C@H]3C/C=C\CCN(C3=O)[C@@H](Cc3ccc(C(F)(F)F)cc3)C(=O)N(C)CC(=O)N[C@@H](CCc3ccc(Cl)c(Cl)c3)C(=O)N2C1 [PP1249]
NRAS/KRAS (ratio of KD value for NRAS to KD value for KRAS) ([1]; KD ratio class): A (a compound having 10 or more and less than 20 is denoted as A) | HRAS/KRAS (ratio of KD value for HRAS to KD value for KRAS) ([4]; KD ratio class): A (a compound having 10 or more and less than 20 is denoted as A)

IC50 [2]: 216 nM | Kd [3, 5]: 1 nM
Structure (SMILES): CCO[C@@H]1C[C@H]2C(=O)NC3(CCC3)C(=O)N(C)[C@@H](C3CCCC3)C(=O)N(C)[C@H](C(=O)N(C)C)CC(=O)N(C)[C@@H](CC3CC3)C(=O)N[C@@H]([C@@H](C)CC)C(=O)N(C)CC(=O)N(C)[C@H]3C/C=C\CCN(C3=O)[C@@H](Cc3ccc(F)cc3C)C(=O)N(C)CC(=O)N[C@@H](CCc3ccc(Cl)c(Cl)c3)C(=O)N2C1 [PP1476]
NRAS/KRAS (ratio of KD value for NRAS to KD value for KRAS) ([1]; KD ratio class): A (a compound having 10 or more and less than 20 is denoted as A) | HRAS/KRAS (ratio of KD value for HRAS to KD value for KRAS) ([4]; KD ratio class): B (a compound having 3 or more and less than 10 is denoted as B)
